Data taken from article PMC9980655 (Journal of medicinal chemistry, 2022).

How the values were obtained:
[1] = In vitro metabolic stability in CES1−/− mouse plasma; assay type: in vitro ADME; conditions: C57BL/6, mouse
[2] = In vitro metabolic stability in CES1−/− mouse liver homogenate; assay type: in vitro ADME; conditions: C57BL/6, mouse
[3] = In vitro metabolic stability in CES1−/− mouse brain homogenate; assay type: in vitro ADME; conditions: for Stability in mouse (% remaining at 1 h) Brain: 10 μM, 37 °C, mean ± std error, n = 3; for remaining at 1 h, 10 μM: C57BL/6, mouse
[4] = Time-dependent oral PK in CES1−/− mice; assay type: in vivo, mouse; conditions: PO 10 mg/kg DPTIP equivalent
nSMase2 = biological target: T1, nSMase2 (Mus musculus, UniProt Q9JJY3); assay: nSMase2 activity in striata of IL-1β-injected mice; assay type: in vivo; conditions: PO 3 and 10 mg/kg DPTIP equivalent, dose dependent, 4 h post IL-1β
T1 sequence (Q9JJY3 1-655): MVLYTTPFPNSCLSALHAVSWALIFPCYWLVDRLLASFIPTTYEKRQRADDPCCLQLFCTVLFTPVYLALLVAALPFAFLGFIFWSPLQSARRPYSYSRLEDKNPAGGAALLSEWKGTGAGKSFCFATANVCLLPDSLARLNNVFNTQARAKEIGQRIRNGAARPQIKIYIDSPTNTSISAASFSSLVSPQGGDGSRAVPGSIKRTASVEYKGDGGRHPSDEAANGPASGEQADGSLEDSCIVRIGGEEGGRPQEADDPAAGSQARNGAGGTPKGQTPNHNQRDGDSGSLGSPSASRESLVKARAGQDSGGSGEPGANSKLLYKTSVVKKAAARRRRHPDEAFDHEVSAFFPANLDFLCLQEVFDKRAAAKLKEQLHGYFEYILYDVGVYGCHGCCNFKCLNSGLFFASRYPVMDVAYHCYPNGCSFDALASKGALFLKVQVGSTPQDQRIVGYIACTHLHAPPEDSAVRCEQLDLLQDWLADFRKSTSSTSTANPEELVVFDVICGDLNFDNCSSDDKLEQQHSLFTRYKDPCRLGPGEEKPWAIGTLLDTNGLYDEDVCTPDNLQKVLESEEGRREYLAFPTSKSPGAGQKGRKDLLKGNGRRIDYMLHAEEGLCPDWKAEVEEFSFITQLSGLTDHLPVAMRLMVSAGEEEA

[5] = rats, dose dependent; cited from earlier work
Single time-point = assay type: in vivo, mouse; conditions: CES1−/− mice, PO 10 mg/kg DPTIP equivalent, 2 h post dose
[6] = assay type: in vivo, mouse; conditions: high resolution mass spectrometry, after oral dosing

SMILES: COc1cc(-c2nc(-c3ccccc3)c(-c3cccs3)[nH]2)cc(OC)c1OC(C)=O [Compound P3, 2,6-Dimethoxy-4-(4-phenyl-5-(thiophen-2-yl)-1H-imidazol-2-yl)phenyl acetate]
- remaining at 1 h, 10 μM ([1]; CES1−/− mouse plasma): < 30%
- remaining at 1 h, 10 μM ([2]; CES1−/− mouse liver homogenate): < 25%
- Stability in mouse (% remaining at 1 h) Brain ([3]; CES1−/− mouse brain homogenate): completely metabolized

SMILES: COc1cc(-c2nc(-c3ccccc3)c(-c3cccs3)[nH]2)cc(OC)c1OC(=O)N1C2CCC1CC(N1CCCCC1)C2 (centres unmarked) [Compound P13, 2,6-Dimethoxy-4-(5-phenyl-4-(thiophen-2-yl)-1H-imidazol-2-yl)phenyl 3-(piperidin-1-yl)-8-azabicyclo[3.2.1]octane-8-carboxylate]
- remaining at 1 h, 10 μM ([2]; tissue homogenate): > 75%

SMILES: CCC1CCCC(CC)N1C(=O)Oc1c(OC)cc(-c2nc(-c3ccccc3)c(-c3cccs3)[nH]2)cc1OC (centres unmarked) [Compound P10, 2,6-Dimethoxy-4-(5-phenyl-4-(thiophen-2-yl)-1H-imidazol-2-yl)phenyl 2,6-diethylpiperidine-1-carboxylate]
- remaining at 1 h, 10 μM ([2]; CES1−/− mouse liver homogenate): > 50%

SMILES: COc1cc(-c2nc(-c3ccccc3)c(-c3cccs3)[nH]2)cc(OC)c1OC(=O)N1CCC(N2CCCCC2)CC1 [Compound P1, 2,6-Dimethoxy-4-(4-phenyl-5-(thiophen-2-yl)-1H-imidazol-2-yl)phenyl [1,4’-bipiperidine]-1’-carboxylate]
- remaining at 1 h, 10 μM ([1]; plasma): > 75%
- remaining at 1 h, 10 μM ([2]; tissue homogenate): > 75%
- AUC0-t of intact prodrug in brain [4]: 494.6 pmol·h/g
- remaining at 1 h, 10 μM ([3]; brain homogenate): ≥ 50%

SMILES: CCC1CC(N2CCCCC2)CC(CC)N1C(=O)Oc1c(OC)cc(-c2nc(-c3ccccc3)c(-c3cccs3)[nH]2)cc1OC (centres unmarked) [Compound P18, 2,6-Dimethoxy-4-(5-phenyl-4-(thiophen-2-yl)-1H-imidazol-2-yl)phenyl 2’,6’-diethyl-[1,4’-bipiperidine]-1’-carboxylate]
- remaining at 1 h, 10 μM ([1]; plasma): > 75%
- remaining at 1 h, 10 μM ([2]; tissue homogenate): > 75%
- Effect on heightened nSMase2 activity in striata caused by IL-1β (nSMase2): normalized
- AUC0-t of intact prodrug in brain [4]: 179 pmol·h/g
- remaining at 1 h, 10 μM ([3]; brain homogenate): > 75%

SMILES: CC(C)c1cccc(C(C)C)c1OCOP(=O)(O)O [fospropofol]
- Improvement of oral bioavailability [5]: 20–70%

SMILES: CCCCCC(=O)Oc1c(OC)cc(-c2nc(-c3ccccc3)c(-c3cccs3)[nH]2)cc1OC [Compound P2, 2,6-Dimethoxy-4-(4-phenyl-5-(thiophen-2-yl)-1H-imidazol-2-yl)phenyl hexanoate]
- remaining at 1 h, 10 μM ([1]; CES1−/− mouse plasma): < 30%
- remaining at 1 h, 10 μM ([2]; CES1−/− mouse liver homogenate): < 25%
- remaining at 1 h, 10 μM ([3]; CES1−/− mouse brain homogenate): ≥ 50%

SMILES: COc1cc(-c2nc(-c3ccccc3)c(-c3cccs3)[nH]2)cc(OC)c1OCOP(=O)(O)O [Compound P15, (2,6-Dimethoxy-4-(4-phenyl-5-(thiophen-2-yl)-1H-imidazol-2-yl)phenoxy) methyl dihydrogen phosphate]
- remaining at 1 h, 10 μM ([2]; CES1−/− mouse liver homogenate): < 25%
- Stability in mouse (% remaining at 1 h) Brain ([3]; CES1−/− mouse brain homogenate): completely metabolized

SMILES: COc1cc(-c2nc(-c3ccccc3)c(-c3cccs3)[nH]2)cc(OC)c1OC(=O)N(C)C [Compound P5, 2,6-Dimethoxy-4-(4-phenyl-5-(thiophen-2-yl)-1H-imidazol-2-yl)phenyl dimethylcarbamate]
- remaining at 1 h, 10 μM ([1]; plasma): > 75%
- remaining at 1 h, 10 μM ([2]; tissue homogenate): > 75%
- remaining at 1 h, 10 μM ([3]; brain homogenate): > 75%

SMILES: COc1cc(-c2nc(-c3ccccc3)c(-c3cccs3)[nH]2)cc(OC)c1OCOP(=O)(O)OCOC(=O)OC(C)C [Compound P16, ((((2,6-Dimethoxy-4-(4-phenyl-5-(thiophen-2-yl)-1H-imidazol-2-yl)phenoxy)methoxy)(hydroxy)phosphoryl)oxy)methyl isopropyl carbonate]
- remaining at 1 h, 10 μM ([2]; CES1−/− mouse liver homogenate): < 25%
- remaining at 1 h, 10 μM ([3]; CES1−/− mouse brain homogenate): > 75%

SMILES: COc1cc(-c2nc(-c3ccccc3)c(-c3cccs3)[nH]2)cc(OC)c1OC(=O)OC(OC(=O)C(C)(C)C)c1ccccc1 (centres unmarked) [Compound P6, (((2,6-Dimethoxy-4-(4-phenyl-5-(thiophen-2-yl)-1H-imidazol-2-yl)phenoxy)carbonyl)oxy)(phenyl)methyl pivalate]
- remaining at 1 h, 10 μM ([1]; CES1−/− mouse plasma): > 75%
- remaining at 1 h, 10 μM ([2]; CES1−/− mouse liver homogenate): > 75%
- remaining at 1 h, 10 μM ([3]; CES1−/− mouse brain homogenate): ≥ 50%

SMILES: COc1cc(-c2nc(-c3ccccc3)c(-c3cccs3)[nH]2)cc(OC)c1OC(=O)C(C)(C)C [Compound P4, 2,6-Dimethoxy-4-(4-phenyl-5-(thiophen-2-yl)-1H-imidazol-2-yl)phenyl pivalate]
- remaining at 1 h, 10 μM ([1]; CES1−/− mouse plasma): < 30%
- remaining at 1 h, 10 μM ([2]; CES1−/− mouse liver homogenate): < 25%
- remaining at 1 h, 10 μM ([3]; CES1−/− mouse brain homogenate): > 75%

SMILES: COc1cc(-c2nc(-c3ccccc3)c(-c3cccs3)[nH]2)cc(OC)c1OC(=O)N1C2CCCC1CC2 [Compound P12, 2,6-Dimethoxy-4-(5-phenyl-4-(thiophen-2-yl)-1H-imidazol-2-yl)phenyl 8-azabicyclo[3.2.1]octane-8-carboxylate]
- remaining at 1 h, 10 μM ([2]; tissue homogenate): > 75%

SMILES: COc1cc(-c2nc(-c3ccccc3)c(-c3cccs3)[nH]2)cc(OC)c1OC(=O)C1=CN(C)C=CC1 [Compound P17, 2,6-Dimethoxy-4-(4-phenyl-5-(thiophen-2-yl)-1H-imidazol-2-yl)phenyl 1-methyl-1,4-dihydropyridine-3-carboxylate]
- Brain level of intact prodrug (Single time-point): 3.0 nM
- Plasma level of intact prodrug (Single time-point): 3.9 nM
- Putative oxidized pyridinium metabolite in brain and plasma [6]: negligible quantities
